Experimental data taken from the METLIN SMRT retention time set (Domingo-Almenara et al. 2019).

Experiment: gradient 5% acetonitrile 3 min, to 50% in 2 min, to 85% in 15 min, held 3 min, 100 µL/min
Details: column: Zorbax Extend-C18 2.1 x 50 mm; eluents: water / acetonitrile, 0.1% formic acid
In short: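 Standards, all pure, were combined into mixtures of ~100 molecules and run at 100 μL/min on a Zorbax Extend-C18 column (2.1 × 50 mm, 1.8 μm) with water and acetonitrile, each containing 0.1% formic acid. A coupled quadrupole time-of-flight mass spectrometer operated in positive and negative ionization mode. Retention time values come from computationally picked adduct peaks, each inspected manually.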

| RP-LC retention time | SMILES |
| --- | --- |
| 1100 s | CCN1C(=O)c2cc(S(=O)(=O)Nc3cc(C)ccc3C)ccc2Oc2cccnc21 |
| 637 s | CCC(=O)N1CCc2cc(C(=O)N3CCOCC3)ccc21 |
| 1150 s | CCCc1c(OCCCOc2ccc(OCC(=O)O)cc2)ccc(C(C)=O)c1O |
| 1210 s | Cc1ccc(CS(=O)(=O)N2CCc3nc(-c4ccc(Cl)cc4)ncc3C2)cc1 |
| 703 s | Cc1ccc(NC(=O)Cn2nc3n(c2=O)CCCCC3)c(C)c1 |
| 643 s | Nc1ncnc(NCc2ccco2)c1[N+](=O)[O-] |
| 756 s | COCCN1C(=O)c2ccccc2C(C(=O)NCCCOC(C)C)C12CCCCC2 (stereo not given) |
| 710 s | COc1c2c(cc3c1[C@@H]1Oc4c(ccc(O)c4CC=C(C)C)[C@@H]1CO3)OC(C)(C)C=C2 |
| 595 s | Cc1nnc2cc(N3CCN(C(=O)Nc4ccc5c(c4)OCCO5)CC3)cnn12 |
| 972 s | CCCCN1C(=O)C(C)(C(=O)NCc2ccccc2)Oc2cccnc21 (stereo not given) |
| 777 s | COc1ccc(OCC(=O)N2CCC(C(=O)NCCc3csc(-c4cccs4)n3)CC2)cc1 |
| 775 s | Cc1cccc(NC(=O)Cn2c(=O)n3nc(CCn4nc(C)cc4C)nc3c3ccccc32)c1 |
| 640 s | Cc1cccc(-c2nc3ccccn3c2NC(=O)NCc2ccco2)c1 |
| 908 s | O=C(Nc1ccc(OCc2nnc(-c3ccccc3)o2)cc1)c1ccnc(Cl)c1 |
| 597 s | Cc1noc(-c2ccc(OC3CN(C(=O)c4cccc5[nH]ccc45)C3)cc2)n1 |
| 1310 s | Cc1cc(C)c(C)c(S(=O)(=O)N2CCCC2c2nc(-c3ccc(F)cc3)no2)c1C (stereo not given) |
| 853 s | Cc1cccc(NC(=O)N2CCC(N3CCN(Cc4ccccc4)C3=O)CC2)c1 |

| RP-LC retention time | SMILES |
| --- | --- |
| 1020 s | CC(C)(C)NC(=O)N[C@H](C(=O)N1C[C@H]2[C@@H]([C@H]1C(=O)NC(CC1CCC1)C(=O)C(N)=O)C2(C)C)C(C)(C)C (stereo not given in full) |
| 1240 s | Cc1ccc(-c2noc(-c3nc(Cc4ccccc4)no3)n2)cc1 |
| 646 s | O=C(Nc1ncn[nH]1)c1ccccc1 |
| 825 s | O=C(c1[nH]c2ccccc2c1Sc1ccc(Cl)cc1)N1CCN(c2ccccn2)CC1 |
| 795 s | CCc1ccc(C2=C(C)C(N3CCCN(C(=O)CCOC)CC3)=NS2(=O)=O)cc1 |
| 997 s | Cc1cccc(-c2noc(C3CCCN3C(=O)c3ccc4c(c3)OCO4)n2)c1 (stereo not given) |
| 688 s | O=C1NCCCn2cc(S(=O)(=O)NC3CCCCCC3)cc21 |
| 799 s | Cn1c(=O)n(C)c2cc(S(=O)(=O)c3ccccc3)c(NC(=O)Cc3cccc(F)c3)cc21 |
| 1070 s | Cc1cc(C)c(S(=O)(=O)N2CCc3c(c(-c4nnc(-c5ccccc5)o4)nn3C)C2)cc1C |
| 708 s | O=C1COc2ccc(S(=O)(=O)N3CCC(C(=O)NCc4ccc5c(c4)OCO5)CC3)cc2N1 |
| 612 s | Cc1cc(N2CCN(C)CC2)nc2ccc(NC(=S)NCc3ccc(F)cc3Cl)cc12 |
| 934 s | O=C(Cc1cccs1)N1CCN(c2ccc(-c3noc(C4CC4)n3)cc2)CC1 |
| 576 s | CCCS(=O)(=O)N1CCC(Cc2nc(-c3ccncc3)n[nH]2)C1 (stereo not given) |
| 700 s | CCn1cc(C(CNC(=O)Nc2ccc(OC)cc2OC)c2cccnc2)c2ccccc21 (stereo not given) |
| 777 s | Cc1cc(C)c(NC(=O)CN2C(=O)NC3(CCCCC3)C2=O)c(C)c1 |
| 765 s | Cc1ccc(CNC(=O)c2ccc3c(c2)CC(=O)N3C)cc1C |

| SMILES | RP-LC retention time |
| --- | --- |
| O=C(CN1CCCC1=O)NCc1ccccc1C(F)(F)F | 680 s |
| CC1OC(O[C@H]2C[C@@H](O)[C@]3(CO)[C@H]4[C@H](O)C[C@]5(C)[C@@H](C6=CC(=O)OC6)CC[C@]5(O)[C@@H]4CC[C@]3(O)C2)C(O)C(O)C1O (stereo not given in full) | 594 s |
